According to patent US8889123B2, “Compositions and soft tissue replacement methods” (Allergan, Inc., priority 2010, dated 2014):

How the values were obtained:
VEGF [1] = test: Incisional wound model, VEGF expression in skin wound tissue by Western blot; type: in vivo, Sprague-Dawley rats; details: topical 0.004% twice daily vs vehicle
Description: (§1) To test whether the compounds of Formula I promote the formation of blood vessels, and incisional wound model was employed over a 14-day period. Sprague-Dawley rats (180-200 g) were anesthetized, the backs shaved, and a 2-cm long incision was made on the back skin of rats under sterile conditions, reaching the deep fascia. The wound was immediately closed with 4-0 sutures. The animals were topically treated with vehicle or Compound 1 at 0.004% twice daily. The vehicle contains ethanol 30%, propylene glycol 12%, dipropylene glycol 5%, benzyl alcohol 5%, glycerol 3% and normal saline 45%. Biopsy samples of skin wound tissues were analyzed with Western blots day-7 and day-14 post-surgery. Tissue samples about 1 mm thick were taken from both sides of the wound. Protein was extracted, and FGF-2/VEGF expression was monitored, with Western blot analysis.

VEGF [2] = test: Oral ulcer wound model, VEGF up-regulation; type: in vivo
FGF-2 [3] = test: Incisional wound model, FGF-2 expression in skin wound tissue by Western blot; type: in vivo, Sprague-Dawley rats; details: topical 0.004% twice daily vs vehicle
Description: as §1

FGF-2 [4] = test: Oral ulcer wound model, FGF-2 up-regulation; type: in vivo

CC1(C)C(=O)[C@H](C/C=C\CCCC(=O)O)[C@@H](/C=C/[C@H](O)CCc2sc3ccccc3c2Cl)[C@@H]1O [Compound 1]
VEGF expression increase, normalized with β-actin (VEGF [1]; day-7, P=0.039): 25% | increase in VEGF synthesis by day-14 (VEGF [1]; day-14): returned to the baseline | up-regulation of VEGF (VEGF [2]): up-regulation | enhanced expression of FGF-2, normalized with β-actin (FGF-2 [3]; day-7, P=0.004): 60% | increase in FGF-2 synthesis over the whole study period (FGF-2 [3]; whole study period (day-14), P=0.04): persisted for the whole study period | up-regulation of FGF-2 (FGF-2 [4]): up-regulation
